Data reported in PubChem BioAssay (NCI).
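These data come from cells grown in 96-well plates and exposed to compound for 48 hours at five concentrations. TGI marks complete inhibition of growth.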

How the values were obtained:
Assay in all cases: NCI-60 cell line screen, 48 h
[1] = test system: 786-0 renal
[2] = test system: A498 renal
[3] = test system: A549 NSCLC
[4] = test system: ACHN renal
[5] = test system: BT-549 breast
[6] = test system: CAKI-1 renal
[7] = test system: CCRF-CEM leukemia
[8] = test system: COLO 205 colon
[9] = test system: DU-145 prostate
[10] = test system: EKVX NSCLC
[11] = test system: HCC-2998 colon
[12] = test system: HCT-116 colon
[13] = test system: HCT-15 colon
[14] = test system: HL-60(TB) leukemia
[15] = test system: HOP-62 NSCLC
[16] = test system: HOP-92 NSCLC
[17] = test system: HS 578T breast
[18] = test system: HT29 colon
[19] = test system: IGROV1 ovarian
[20] = test system: K-562 leukemia
[21] = test system: KM12 colon
[22] = test system: LOX IMVI melanoma
[23] = test system: MALME-3M melanoma
[24] = test system: MCF7 breast
[25] = test system: MDA-MB-231 breast
[26] = test system: MDA-MB-435
[27] = test system: MDA-N
[28] = test system: MOLT-4 leukemia
[29] = test system: NCI-H226 lung
[30] = test system: NCI-H23 lung
[31] = test system: NCI-H460 lung
[32] = test system: NCI-H522 lung
[33] = test system: NCI/ADR-RES ovarian
[34] = test system: OVCAR-3 ovarian
[35] = test system: OVCAR-4 ovarian
[36] = test system: OVCAR-5 ovarian
[37] = test system: OVCAR-8 ovarian
[38] = test system: PC-3 prostate
[39] = test system: RPMI-8226 leukemia
[40] = test system: RXF 393 renal
[41] = test system: SF-268 CNS
[42] = test system: SF-295 CNS
[43] = test system: SF-539 CNS
[44] = test system: SK-MEL-2 melanoma
[45] = test system: SK-MEL-28 melanoma
[46] = test system: SK-MEL-5 melanoma
[47] = test system: SK-OV-3 ovarian
[48] = test system: SN12C renal
[49] = test system: SNB-19 CNS
[50] = test system: SNB-75 CNS
[51] = test system: SR leukemia
[52] = test system: SW-620 colon
[53] = test system: T-47D breast
[54] = test system: TK-10 renal
[55] = test system: U251 CNS
[56] = test system: UACC-257 melanoma
[57] = test system: UACC-62 melanoma
[58] = test system: UO-31 renal

Cc1ccc(/C=C2\CCCC(CN3CCCCC3)C2=O)cc1 (stereo not drawn)
TGI [1]: 4.02 µM | TGI [2]: 26.1 µM | TGI [3]: 33.1 µM | TGI [4]: 16.4 µM | TGI [5]: 4.84 µM | TGI [6]: 3.19 µM | TGI [7]: 3.03 µM | TGI [8]: 3.25 µM | TGI [9]: 23.9 µM | TGI [10]: 32.7 µM | TGI [11]: 28.9 µM | TGI [12]: 3.26 µM | TGI [13]: 4.3 µM | TGI [14]: > 100 µM | TGI [15]: 35.4 µM | TGI [16]: 4.04 µM | TGI [17]: 6.59 µM | TGI [18]: 3.28 µM | TGI [19]: 3.72 µM | TGI [20]: > 100 µM | TGI [21]: 2.72 µM | TGI [22]: 3.29 µM | TGI [23]: 5.98 µM | TGI [24]: 2.1 µM | TGI [25]: 3.34 µM | TGI [26]: 3.81 µM | TGI [27]: 7.78 µM | TGI [28]: > 100 µM | TGI [29]: 5.99 µM | TGI [30]: 4.86 µM | TGI [31]: 15.9 µM | TGI [32]: 3.22 µM | TGI [33]: 42.5 µM | TGI [34]: 3.39 µM | TGI [35]: 3.62 µM | TGI [36]: 28.7 µM | TGI [37]: 6.79 µM | TGI [38]: 5.74 µM | TGI [39]: > 100 µM | TGI [40]: 3.15 µM | TGI [41]: 4.07 µM | TGI [42]: 30.9 µM | TGI [43]: 15.6 µM | TGI [44]: 9.91 µM | TGI [45]: 3.22 µM | TGI [46]: 17.4 µM | TGI [47]: 30.1 µM | TGI [48]: 8.4 µM | TGI [49]: 29.6 µM | TGI [50]: 17.7 µM | TGI [51]: > 100 µM | TGI [52]: 3.14 µM | TGI [53]: 3.41 µM | TGI [54]: 7.44 µM | TGI [55]: 27.3 µM | TGI [56]: 4.02 µM | TGI [57]: 16.4 µM | TGI [58]: 3.58 µM
